These results are taken from publication PMC6776562, “Inhibition of Rac1-dependent forgetting alleviates memory deficits in animal models of Alzheimer’s disease” (Protein & Cell, 2019).

For one data set, the system named is MDR-MDCK cell line. The data set can be described thus: In vitro blood-brain barrier permeability assay. Type of data set: in vitro ADME. To be noted: 5 μmol/L, 37 °C, 90 min. Here is the method:
The MDR-MDCK cell line can be used as a fast blood-brain barrier (BBB) model to aid drug discovery (Wang et al., [2005]). In this study, the MDR-MDCK cell line was used to evaluate the permeability coefficients of CS7171 and JKF-034. Briefly, CS7171 and JKF-034 were prepared to final concentrations of 5 μmol/L. The cells were dosed on the basolateral side (B-A) and apical side (A-B) and incubated at 37 °C for 90 min. Each test was performed in duplicate. The apparent permeability coefficient, Papp, was calculated using the following formula: Papp=VA/Area×Time×(drugacceptor,90-min/drugdonor,0-min×Dilution Factor
VA is the volume in the acceptor well, Area is the surface area of the membrane, Time is the total transport time in seconds, [drug]donor, 0-min is the donor drug concentration measured at 0 min; [drug]acceptor, 90-min is the acceptor drug concentration measured at 90 min; dilution factor is the degree of dilution of the donor sample before loading to LC-MS/MS.

Data set [1] is described as follows: In vitro metabolic stability in liver microsomes (species not separated). It is filed as in vitro ADME, human, monkey, and mouse. As to conditions: all species of Table 4. The protocol:
(§1) Measurements of metabolic stability can be performed with liver microsomes, which are known to contain the major drug-metabolizing enzymes and UDP-glucuronosyltransferase (Baranczewski et al., [2006]). The in vitro metabolic stability levels of CS7171 and JKF-034 were measured using human, monkey, and mouse liver microsomes. The metabolic half-time (T1/2) and intrinsic clearance (Clint) were assayed using LC-MS analysis. Ketanserin is a potent, orally effective antagonist of endogenous serotonin. Its pharmacological profile is well studied (Brogden and Sorkin, [1990]). In this study, we used ketanserin as a control. If the T1/2 of the tested compound was 30–120 min, the compound was considered to show moderate metabolism in liver microsomes. If the T1/2 value was less than 30 min, the compound was considered to be susceptible to metabolism in liver microsomes.

A short description of data set [2]: In vitro metabolic stability in monkey liver microsomes. Type of data set: in vitro ADME. The protocol: as §1
Data set [3] is described as follows: In vitro metabolic stability in human liver microsomes. Type of data set: in vitro ADME. The protocol: as §1
(In general: Microsomes from liver hold many membrane-bound enzymes, among them those of drug oxidation.)

A further data set relates to Cdc42. The data set can be described thus: Cdc42 activity (Cdc42-GTP) by Western blot after drug administration. Type of data set: in vivo. As to conditions: 7-month-old APP/PS1 mice; two weeks of P.O administration. The protocol: (§2) The hippocampal tissues from human subjects and mice were harvested and stored in a liquid nitrogen tank for biochemical assay. The tissues were homogenized in cold lysis buffer (Merck-Millipore, 20-168). The insoluble debris were removed after centrifugation at 13,000 rpm (for 10 min, at 4 °C). For GTP-bound Rac/Cdc42, lysates were incubated with GST-tagged PAK (p21-activated kinase)-PBD agarose beads (Cytoskeleton, PAK02) overnight at 4 °C. On the second day, the beads were washed three times with lysis buffer before subjecting them to SDS-PAGE (15%) and transferring them onto nitrocellulose membranes (Millipore, HATF00010). The membranes were incubated with primary antibodies (for Rac1: BD Transduction Laboratories, #610650, 1:2,000 dilution; for Cdc42, Santa Cruz Biotechnology, lot No. sc-8401, 1:500 dilution) overnight at 4 °C and with HRP-conjugated goat anti-mouse IgG (Cell Signaling Technology, #7076) for 1 h at room temperature. Intensities of the detected bands were analyzed using ImageJ software (National Institutes of Health). The total amount of Rac1 in the lysate was detected using a routine Western blot procedure. RhoA-GTP levels were measured by using the Rho-GTP monoclonal antibody (New East, lot No. 26904, Dilution: 1:1,000). […] Data information: All values are expressed as mean r SEM.

A short description of data set [4]: Pharmacokinetics study in CD1 mice. Type of data set: in vivo. As to conditions: for AUC0-infinity / AUC0-t / T1/2 / Tmax / F (bioavailability): CD1 mice; for AUC0-infinity / AUC0-t / T1/2 / Tmax: plasma, estimated value, n = 3; for AUC0-infinity / AUC0-t / T1/2: P.O 50 mg/kg CS7171, 40 mg/kg JKF-034 (I.V 10 and 2.5 mg/kg), route of the parameter not stated; for Tmax: P.O 50 mg/kg CS7171, 40 mg/kg JKF-034; for F (bioavailability): P.O 50 mg/kg vs I.V 10 mg/kg CS7171, P.O 40 mg/kg vs I.V 2.5 mg/kg JKF-034. The protocol: For the CS7171 and JKF-034 pharmacokinetics (PK) assays, 30 CD1 mice were purchased from JH Laboratory Animal Co. LTD (Qualification No: SCXK (SH) 2017-001220170012002565). A total of 18 CD1 mice were grouped for intravenous injection (I.V) with 10 mg/kg CS7171 and 2.5 mg/kg JKF-034. Sampling was performed at 0.083, 0.25, 0.5, 1, 3, 6 and 24 h after administration. A total of 12 CD1 mice were grouped for oral administration (P.O) of 50 mg/kg CS7171 and 40 mg/kg JKF-034. Sampling was performed at 0.25, 0.5, 1, 3, 6 and 24 h after administration. The blood samples were maintained in wet ice first and centrifuged to obtain plasma within 15 min post-sampling. Subsequently, the samples were subjected to LC-MS/MS analysis.

Another data set relates to Aβ42. The data set can be described thus: Aβ42 level by Western blot (6E10 antibody) after drug administration. Type of data set: in vivo, APP/PS1 mice. To be noted: for level of Aβ42 monomer: 7-month-old APP/PS1 mice, two weeks of P.O administration. The protocol: as §2, with “1:1,000). Information regarding the other antibodies used is as follows: anti-RhoA (67B9), Cell Signaling, lot No. #2117, dilution: 1:1,000; anti-Actin, Clone C4, Millipore, lot No. #3018859, dilution: 1:2,000; anti-Amyloid 1-42 6E10, BioLegend, lot No. 803001, dilution: 1:1,000; anti-Phospho-PAK1 ([…])/PAK2 ([…]), Cell Signaling, lot No. #2606, dilution: 1:1,000. page 2: A Representative […] blot of AE42 detected by AE42 monoclonal antibody (6E10) after two weeks of administration (P.O) of CS7171 and JKF-034 in 7-month-old APP/PS1 mice. B The level of AE42 monomer was decreased by JKF-034. […] D Representative […] blot of total RhoA, total Cdc42, RhoA-GTP, and Cdc42-GTP after two weeks of drug administration (P.O) of CS7171 and JKF-034 in 7-month-old APP/PS1 mice.” for “1:1,000).”
A general note: Immunoblotting shows a protein as a band on a membrane.

As for `O=C1NN(c2ccc(Cl)c(Cl)c2)C(=O)C1=Cc1ccc(O)c(N(O)O)c1` [CS7171], in the data set on MDR-MDCK cell line, the “Papp Mean, A-B” value is on record as 7.91 10^−6 cm/s and the “Papp Mean, B-A” value is 3.61 10^−6 cm/s. Besides, the “T1/2 in liver microsomes” value in data set [1] is “less than 30 min”. In addition, in data set [2], the Clint is reported as 229.15 mL/min/kg and the T1/2 is on record as 8.85 min. Besides, in data set [3], the Clint worked out at 407.54 mL/min/kg and the T1/2 was 4.27 min. The Cdc42 activity entry in the data set on Cdc42 was “did not affect”. In data set [4], the AUC0-infinity was 4,160 h*ng/mL, the AUC0-t was 4,101 h*ng/mL, the T1/2 is 56.6 min and the Tmax (usually the time at which the peak concentration occurs) is 15 min. Further, the “F (bioavailability)” value in data set [4] is recorded as 28.2%. The “level of Aβ42 monomer” value in the data set on Aβ42 is “did not aff ect”.
Consider `O=S(=O)(c1ccccc1)N1CCN(Cc2ccccc2)CC1` [JKF-034], for which, in the data set with MDR-MDCK cell line, the “Papp Mean, A-B” value is recorded as 57.33 10^−6 cm/s and the “Papp Mean, B-A” value is 32.79 10^−6 cm/s. For the same compound, the “T1/2 in liver microsomes” value in data set [1] is given as “less than 30 min”. Moreover, in data set [2], the Clint was 401.14 mL/min/kg and the T1/2 stood at 5.05 min. In addition, in data set [3], the Clint came out at 95.92 mL/min/kg and the T1/2 was determined as 18.12 min. Further, the Cdc42 activity result with Cdc42 is recorded as “did not affect”. Moreover, the “metabolic half-time (T1/2) of JKF-034 relative to CS7171” value in data set [4] (CD1 mice PK) was “about ten times higher than that of CS7171”. Besides, in data set [4], the AUC0-infinity is 1,692 h*ng/mL, the AUC0-t is 1,262 h*ng/mL, the T1/2 was 551 min and the Tmax is 30 min. Further, the “F (bioavailability)” value in data set [4] was 19.3%. For the same compound, in the data set on Aβ42, the “level of Aβ42 monomer” value is given as “decreased”. For the same compound, the Aβ42 accumulation entry in the data set with Aβ42 (APP/PS1 mice, Fig. S4A–C) was “reduction”.
